Laboratory results: US20070179121A1, “Method of treating pediatric patients with corticosteroids” (priority 2006, published 2007)

Legend:
Assay type in all cases: in vivo, human (pediatric patients)
[1] = Skin safety evaluations: signs and symptoms of skin atrophy; details: for Patients who showed new signs of skin atrophy at Week 2 not present at Baseline: 5/62
Description: (§1) Patients who met the inclusion/exclusion criteria were randomized to receive topical fluocinonide either qd or bid. Patients/guardians were instructed to apply a thin layer of the study product to all treatable areas once or twice daily for 14 days. If the areas to be treated were hairy, patients/guardians were instructed to part the hair to allow direct contact between the study product and the lesion. Patients/guardians were also instructed not to apply study product to lesions of the face, groin, perianal area, and axillae. At the end of Weeks 1, 2, and 4, patients returned to the study site in order for the investigator to perform designated evaluations, review treatment compliance and concomitant therapy, and to collect information regarding adverse events.
Specific skin safety evaluations were performed at each study visit with regard to all treated lesions by noting the presence or absence of the following 8 signs and symptoms of skin atrophy: telangiectasia, transparency, loss of elasticity, loss of normal skin markings, thinning, striae, pigmentation changes, and bruising.

[2] = Treatment-emergent adverse events
Description: as §1
Adverse events were coded using MedDRA terminology (a standard dictionary of terms used to clarify adverse events) and were described according to their intensity, duration and relationship to the study product.

[3] = Efficacy: investigator rating of atopic dermatitis severity; details: for Patients who continued to show an improvement of clear or almost clear compared to Baseline: 2-week follow-up visit
Description: as §1
Efficacy was assessed by observing the change in the severity of atopic dermatitis from Baseline to Week 2 and Week 4. A disease exacerbation requiring more aggressive treatment than previously used was considered an adverse event.
The sole efficacy variable in the study was an investigator rating of skin disease severity performed at Screening, at end of treatment, and at a follow-up visit 4 weeks after the start of study treatment. Fluocinonide administered either qd or bid appears to be effective against atopic dermatitis in children aged 3 months to 17 years. In each of the 4 cohorts of this study, more than 90% of the patients in both the fluocinonide qd and bid group were rated by the investigator as showing an improvement in their disease status or as clear or almost clear of disease at the end of the treatment period. The qd regimen appeared to be as effective as the bid regimen across all age groups.

## CC(=O)OCC(=O)[C@@]12OC(C)(C)O[C@@H]1C[C@H]1[C@@H]3C[C@H](F)C4=CC(=O)C=C[C@]4(C)[C@@]3(F)[C@@H](O)C[C@@]12C [Fluocinonide, pregna-1,4-diene-3,20-dione,21-(acetyloxy)-6,9-difluoro-11-hydroxy-16, 17-[(1-methylethylidene)bis(oxy)]-,(6α., 11β,16α)-]
[1]; Cohort 1 (12-<18), bid
  Number (%) of patients who showed new signs at Week 2 not present at Baseline: 2 (12.5) Number (%)
[1]; Cohort 1 (12-<18), qd
  Number (%) of patients who showed new signs at Week 2 not present at Baseline: 2 (13.3) Number (%)
[1]; Cohort 2 (6-<12), bid
  Number (%) of patients who showed new signs at Week 2 not present at Baseline: 1 (6.3) Number (%)
[1]; Cohort 2 (6-<12), qd
  Number (%) of patients who showed new signs at Week 2 not present at Baseline: 0 Number (%)
[1]; Cohort 3 (2-<6), bid
  Number (%) of patients who showed new signs at Week 2 not present at Baseline: 0 Number (%)
[1]; Cohort 3 (2-<6), qd
  Number (%) of patients who showed new signs at Week 2 not present at Baseline: 1 (6.7) Number (%)
[1]; Cohort 4 (3 months to <2 year), bid
  Number (%) of patients who showed new signs at Week 2 not present at Baseline: 2 (13.3) Number (%)
[1]; Cohort 4 (3 months to <2 year), qd
  Number (%) of patients who showed new signs at Week 2 not present at Baseline: 2 (12.5) Number (%)
[1]; bid treatment group overall
  Patients who showed new signs of skin atrophy at Week 2 not present at Baseline: 8.1%
[1]; qd treatment group overall
  Patients who showed new signs of skin atrophy at Week 2 not present at Baseline: 8.1%
[2]; Cohort 1, bid
  Burning Sensation NOS: 2 (11.8) Number (%)
  Dermatitis diaper: 0 (0) Number (%)
  Folliculitis: 1 (5.9) Number (%)
  Gastroenteritis NOS: 0 (0) Number (%)
  Headache: 3 (17.6) Number (%)
  Pain NOS: 2 (11.8) Number (%)
  Pyrexia: 0 (0) Number (%)
  Total no. of patients with AEs: 9 (52.9) Number (%)
  Upper respiratory tract infection: 0 (0) Number (%)
[2]; Cohort 1, qd
  Burning Sensation NOS: 0 (0) Number (%)
  Dermatitis diaper: 0 (0) Number (%)
  Folliculitis: 2 (12.5) Number (%)
  Gastroenteritis NOS: 0 (0) Number (%)
  Headache: 1 (6.3) Number (%)
  Pain NOS: 0 (0) Number (%)
  Pyrexia: 0 (0) Number (%)
  Total no. of patients with AEs: 6 (37.5) Number (%)
  Upper respiratory tract infection: 0 (0) Number (%)
[2]; Cohort 2, bid
  Burning Sensation NOS: 0 (0) Number (%)
  Dermatitis diaper: 0 (0) Number (%)
  Folliculitis: 0 (0) Number (%)
  Gastroenteritis NOS: 0 (0) Number (%)
  Headache: 0 (0) Number (%)
  Pain NOS: 0 (0) Number (%)
  Pyrexia: 0 (0) Number (%)
  Total no. of patients with AEs: 6 (37.5) Number (%)
  Upper respiratory tract infection: 1 (6.3) Number (%)
[2]; Cohort 2, qd
  Burning Sensation NOS: 0 (0) Number (%)
  Dermatitis diaper: 0 (0) Number (%)
  Folliculitis: 1 (6.3) Number (%)
  Gastroenteritis NOS: 0 (0) Number (%)
  Headache: 0 (0) Number (%)
  Pain NOS: 1 (6.3) Number (%)
  Pyrexia: 0 (0) Number (%)
  Total no. of patients with AEs: 4 (25.0) Number (%)
  Upper respiratory tract infection: 0 (0) Number (%)
[2]; Cohort 3, bid
  Burning Sensation NOS: 0 (0) Number (%)
  Dermatitis diaper: 0 (0) Number (%)
  Folliculitis: 0 (0) Number (%)
  Gastroenteritis NOS: 0 (0) Number (%)
  Headache: 0 (0) Number (%)
  Pain NOS: 0 (0) Number (%)
  Pyrexia: 0 (0) Number (%)
  Total no. of patients with AEs: 2 (13.3) Number (%)
  Upper respiratory tract infection: 0 (0) Number (%)
[2]; Cohort 3, qd
  Burning Sensation NOS: 0 (0) Number (%)
  Dermatitis diaper: 0 (0) Number (%)
  Folliculitis: 0 (0) Number (%)
  Gastroenteritis NOS: 0 (0) Number (%)
  Headache: 0 (0) Number (%)
  Pain NOS: 0 (0) Number (%)
  Pyrexia: 0 (0) Number (%)
  Total no. of patients with AEs: 3 (20) Number (%)
  Upper respiratory tract infection: 0 (0) Number (%)
[2]; Cohort 4, bid
  Burning Sensation NOS: 0 (0) Number (%)
  Dermatitis diaper: 0 (0) Number (%)
  Folliculitis: 0 (0) Number (%)
  Gastroenteritis NOS: 0 (0) Number (%)
  Headache: 0 (0) Number (%)
  Pain NOS: 0 (0) Number (%)
  Pyrexia: 2 (13.3) Number (%)
  Total no. of patients with AEs: 7 (46.7) Number (%)
  Upper respiratory tract infection: 1 (6.7) Number (%)
[2]; Cohort 4, qd
  Burning Sensation NOS: 0 (0) Number (%)
  Dermatitis diaper: 2 (12.5) Number (%)
  Folliculitis: 0 (0) Number (%)
  Gastroenteritis NOS: 2 (12.5) Number (%)
  Headache: 0 (0) Number (%)
  Pain NOS: 0 (0) Number (%)
  Pyrexia: 2 (12.5) Number (%)
  Total no. of patients with AEs: 8 (50.0) Number (%)
  Upper respiratory tract infection: 2 (12.5) Number (%)
[2]; all treated patients, 45 of 126
  Patients who reported at least one treatment-emergent adverse event (TEAE): 35.7%
[2]; whole study
  Deaths or other serious adverse events: No deaths or other serious adverse events
[3]; each dosage group in Cohort 1 and Cohort 3
  Patients who continued to show an improvement of clear or almost clear compared to Baseline: > 80%
[3]; each dosage group in Cohort 2
  Patients who continued to show an improvement of clear or almost clear compared to Baseline: > 70%
[3]; each dosage group in Cohort 4
  Patients who continued to show an improvement of clear or almost clear compared to Baseline: > 90%
[3]; end of treatment period vs Baseline, Cohort 1 and Cohort 2, bid
  Patients rated as showing an improvement in disease status or as clear or almost clear of disease: > 90%
[3]; end of treatment period vs Baseline, Cohort 1 and Cohort 2, qd
  Patients rated as showing an improvement in disease status or as clear or almost clear of disease: all of the patients
[3]; end of treatment period, Cohorts 3 and 4, both qd and bid groups
  Patients rated as showing an improvement in disease status or as clear or almost clear of disease: > 90%
[3]; end of treatment period, each of the 4 cohorts, both qd and bid group
  Patients rated as showing an improvement in disease status or as clear or almost clear of disease: more than 90%
